Results on five molecules are retold here after US11186588B2 (AYUMI PHARMACEUTICAL CORPORATION, priority 2017, dated 2021).

The term inhibition denotes the change of the read-out against control, counted positive when it falls. As a reminder, the IC50 is the concentration that inhibits the measured activity by half. A higher IC50 goes with weaker potency. The inhibition in vivo is the relative decrease from the control value, in per cent. A high value points to a response far below the control.

Assay [1] addresses Recombinant BRD4 (44-168) protein (Homo sapiens (Human), UniProt O60885). Nature of the assay: BRD4-H4KAc4 binding assay (amplified luminescence proximity homogeneous assay, AlphaScreen). The conditions noted are these: 10 uM. The method in brief:
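His/FLAG-tagged BRD4 (44-168) and biotinylated tetra-acetylated H4 peptide, each added as 250 nM solutions, incubated with compound 60 min at room temperature in the dark, then AlphaScreen beads 60 min. Emission 520-620 nm at 680 nm excitation, duplicates; % inhibition from blank- and DMSO-corrected signal.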
(Alpha assays give light when donor and acceptor beads are brought close together.)

Another assay deals with NF-κB. Nature of the assay: NF-κB reporter gene assay (TNF-α stimulated A549/NF-κB-luc cells). Format: cell-based. The conditions noted are these: Homo sapiens, TNF-α stimulation. The gist of the method: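 A549 cells stably carrying an NF-κB luciferase reporter were preincubated with compound for 1 h, then stimulated with TNF-α for 3 h. Luminescence was read with Steady-Glo, and inhibition was scaled between blank and DMSO control wells. IC50 was obtained by curve fitting.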
Background: In a reporter assay the amount or activity of a reporter protein is the signal.

In a further assay the test system is IL-6 production. Nature of the assay: LPS-induced IL-6 production model test. It counts as in vivo, C57BL/6J mice. The note with it: Mus musculus, 1 h; 10 mg/kg oral, 30 min before LPS 1 mg/kg i.p., serum IL-6 60 min after LPS, mice. How it is done: In order to evaluate the inhibitory activity of inflammatory cytokine production in the present compounds, LPS-induced IL-6 production model evaluation was carried out. The specific method is described below.
An appropriate amount of each compound was weighed, triturated with an agate mortar, and suspended or dissolved in 1% methyl cellulose solution to prepare 1 mg/mL solution.
C57BL/6J mice (male, Purchaser: Charles River Laboratories Japan, Inc.) were weighted, before divided into normal group, control group and each compound-administered group based on the measured body weight using a random number, wherein each group contained 6 samples. The mice were manually held in hands and forced orally administered the 1% methyl cellulose solution (normal and control group) or each administration solution comprising the compound (each compound-administered group) at a dose of 10 mL/kg into stomach using a feeding needle. After 30 minutes from administration of the 1% methyl cellulose solution or each compound administration solution, the mice were manually held in hands and intraperitoneally administered physiological saline (normal group) or LPS solution (control and each compound-administered group) at a dose of 1 mg/kg. After 60 minutes from administration of the LPS solution, whole blood was collected from the abdominal vena cava of each mouse under isoflurane inhalation anesthesia (available from Mylan Seiyaku Ltd.), and the mice were euthanized. The collected blood was allowed to stand at room temperature for one hour, and then centrifuged at 1,500 G for 10 minutes to collect a serum (supernatant). The collected serum was stored in a deep freezer set at −80° C. until the measurement of IL-6 in the serum. The IL-6 concentration in the serum of each mouse was measured by a commercially available kit (available from R&D systems, Cat No. M6000B), according to the protocol attached thereto.
The IL-6 production inhibition rate (%) was calculated by the following equation using Microsoft EXCEL 2010. IL-6 production inhibition rate (%)=100−{(average value of IL-6 concentration in serum of each compound-administered group)−(average value of IL-6 concentration in serum of normal group))/(average value of IL-6 concentration in serum of control group)−(average value of IL-6 concentration in serum of normal group)}×100

In the case of `Cc1sc2c(c1C)C(c1ccc(Cl)cc1)=NN(Cc1ccccn1)c1nnc(C)n1-2` [Example 5, 4-(4-chlorophenyl)-2,3,9-trimethyl-6-(pyridin-2-ylmethyl)-6H-thieno[2,3-e][1,2,4]triazolo[3,4-c][1,2,4]triazepine], the inhibition at 10 µM in assay [1] stood at 100%. Further, the IC50 in the assay on NF-κB was found to be 0.0275 µM. For the same molecule, at 10 mg/kg the inhibition in vivo with IL-6 production was 77.5%.
The matching figures for `Cc1sc2c(c1C)C(c1ccc(Cl)cc1)=NN(Cc1cccnc1F)c1nnc(C)n1-2` [Example 25, 4-(4-chlorophenyl)-6-((2-fluoropyridin-3-yl)methyl)-2,3,9-trimethyl-6H-thieno[2,3-e][1,2,4]triazolo[3,4-c][1,2,4]triazepine]: 100%, 0.0503 µM and 26.3%.
The matching figures for `Cc1sc2c(c1C)C(c1ccccc1)=NN(Cc1ccccn1)c1nnc(C)n1-2` [Example 31, 2,3,9-trimethyl-4-phenyl-6-(pyridin-2-ylmethyl)-6H-thieno[2,3-e][1,2,4]triazolo[3,4-c][1,2,4]triazepine]: 97.8%, 0.15 µM and 57.5%.
Consider `Cc1sc2c(c1C)C(c1ccc(Cl)cc1)=NN(Cc1cccnc1Cl)c1nnc(C)n1-2` [Example 38, 4-(4-chlorophenyl)-6-((2-chloropyridin-3-yl)methyl)-2,3,9-trimethyl-6H-thieno[2,3-e][1,2,4]triazolo[3,4-c][1,2,4]triazepine], for which the inhibition at 10 µM in assay [1] turned out to be 100%. Half-maximal inhibition in the assay with NF-κB (IC50) required 0.106 µM. For the same molecule, the inhibition in vivo at 10 mg/kg with IL-6 production turned out to be 20.2%.
On to `CC(=O)Nc1ccc(C2=NN(Cc3cccnc3)c3nnc(C)n3-c3sc(C)c(C)c32)cc1` [Example 71, N-(4-(2,3,9-trimethyl-6-(pyridin-3-ylmethyl)-6H-thieno[2,3-e][1,2,4]triazolo[3,4-c][1,2,4]triazepin-4-yl)phenyl)acetamide], for which the inhibition at 10 µM in assay [1] was found to be 100%. In the assay on NF-κB, this molecule had an IC50 of 0.634 µM. Testing at 10 mg/kg in the assay with IL-6 production gave an inhibition in vivo of 79%.
